Experimental data: patent US7192949B2, “Substituted bicyclic pyrimidinones as a mitotic kinesin KSP inhibitors” (Merck & Co., Inc., priority 2001, dated 2007)

Biological target: T1, human KSP motor domain (KSP(367H)) (Homo sapiens, UniProt P52732)
T1 construct: were used to amplify the motor domain and the neck linker region; made in house; host or cells: E. coli BL21 (DE3), pRSETa vector
T1 sequence (P52732 18-359 limits assumed): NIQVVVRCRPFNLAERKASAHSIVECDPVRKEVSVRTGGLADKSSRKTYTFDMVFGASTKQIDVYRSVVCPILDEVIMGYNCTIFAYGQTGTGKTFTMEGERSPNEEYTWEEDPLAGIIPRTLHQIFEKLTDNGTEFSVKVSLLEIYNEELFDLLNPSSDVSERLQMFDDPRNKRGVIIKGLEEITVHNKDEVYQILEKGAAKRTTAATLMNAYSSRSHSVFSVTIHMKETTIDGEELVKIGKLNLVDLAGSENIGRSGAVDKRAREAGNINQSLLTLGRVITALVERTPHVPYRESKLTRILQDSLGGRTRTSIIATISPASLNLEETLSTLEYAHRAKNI
Experiment: Kinesin ATPase In Vitro Assay
Format: biochemical
Conditions: kinesin motor domain with microtubules, 1 mM ATP, 23° C.; free phosphate by quinaldine red/ammonium molybdate, absorbance 540 nm
Source text: I. Kinesin ATPase In Vitro Assay
Cloning and Expression of Human Poly-Histidine Tagged KSP Motor Domain (KSP(367H))
Plasmids for the expression of the human KSP motor domain construct were cloned by PCR using a pBluescript full length human KSP construct (Blangy et al., Cell, vol.83, pp 1159–1169, 1995) as a template. The N-terminal primer 5′-[…] (SEQ.ID.NO.: 1) and the C-terminal primer 5′-[…] […] (SEQ.ID.NO.: 2) were used to amplify the motor domain and the neck linker region. The PCR products were digested with AseI and XhoI, ligated into the NdeI/XhoI digestion product of pRSETa (Invitrogen) and transformed into E. coli BL21 (DE3).
Cells were grown at 37° C. to an OD600 of 0.5. […]
The kinesin motor domain is incubated with microtubules, 1 mM ATP (1:1 MgCl2: Na-ATP), and compound at 23° C. in buffer containing 80 mM K-HEPES (pH 7.0), 1 mM EGTA, 1 mM DTT, 1 mM MgCl2, and 50 mM KCl. […] Free phosphate from the ATP hydrolysis reaction is measured via a quinaldine red/ammonium molybdate assay by adding 150 μl of quench C buffer containing a 2:1 ratio of quench A:quench B. Quench A contains 0.1 mg/ml quinaldine red and 0.14% polyvinyl alcohol; quench B contains 12.3 mM ammonium molybdate tetrahydrate in 1.15 M sulfuric acid. The reaction is incubated for 10 minutes at 23° C., and the absorbance of the phospho-molybdate complex is measured at 540 nm.

CCC(c1nc2c(c(=O)n1Cc1ccccc1)CCC2)N(CCN(C)C)C(=O)c1ccc(Br)cc1 (stereo not shown) [1-5, N-[1-(3-benzyl-4-oxo-4,5,6,7-tetrahydro-3H-cyclopenta[d]pyriinidin-2-yl)propyl]-4-bromo-N-[2-(dimethylamino)ethyl]benzamide] showed an IC50 of at most 50 µM.
